# Laboratory results published in patent publication US7449453B2, “Compositions of ezetimibe and methods for the treatment of cholesterol-associated benign and malignant tumors” (Karykion Inc., priority 2002, dated 2008).
# “Also recorded” adds a separate entry of the source.
# What was measured:
# [1] = system: benign prostatic hyperplasia; conditions: controlled double blind study; cited from earlier work
# [2] = system: tumor initiation and progression; conditions: long-term rat studies; cited from earlier work
# [3] = cited from earlier work; for serum cholesterol levels: mice fed a low cholesterol diet; for elevated serum cholesterol levels: mice, induced by high cholesterol diets
# [4] = system: LNCaP cells transfected with HB-EGF; test: SCID mice transplanted subcutaneously with LNCaP cells transfected with HB-EGF, high cholesterol diet; type: in vivo; conditions: for tumor growth and progression vs untreated controls: 10 mg/kg body weight in diet, started 2 weeks after implantation, 6-12 weeks of treatment, intact and castrated animals; for tumor volumes: progression and growth of the implanted tumors vs untreated controls: 30 mg/kg of body weight, started 2 weeks after tumor implantation, after 12 weeks, high cholesterol diet
# Excerpt: Prostate cancer is a leading cause of mortality in males in North America with between 30,000 to 40,000 deaths per year in the United States. While chemotherapy has not been very efficacious in the treatment of prostate cancer, an alternative approach has been to target prostate cancer cell survival pathways, particularly the PI3 kinase/Akt/PTEN signaling axis, which has been identified as an important cell survival mechanism in PCa and other cancers. Recently it has been determined that membrane cholesterol is an important component of a mechanism that transfers survival signals from the cell exterior to the Akt1 serine-threonine kinase. It has also been shown recently that elevated serum cholesterol accelerates the growth, lowers the extent of cellular apotosis, and increases the level of Akt activation in prostate tumors within a murine prostate cancer model. Findings indicate that cholesterol plays a critical role in the ability of prostate cancer cells to resist apoptotic stimuli. The role of cholesterol in prostate cancer cell survival is so critical that drugs that bind cholesterol (polyene macrolides), extract cholesterol from membranes (cyclodextrin) or block cholesterol synthesis (statins) all alter essential membranes (lipid rafts) and reduce their capacity to regulate cell signaling. Cholesterol plays a crucial role in specifically regulating prostate cancer growth and survival. In these studies a unique prostate murine model system is used. This model features the human prostate adenocarcinoma cell line, LNCaP transfected with HB-EGF. LNCAP cells resemble typical prostate tumor cells in their general morphology, production of PSA and PTEN null status. Stable transfection with HB-EGF, a physiologically relevant EGFR ligand that originates in the prostatic stroma, permits LNCaP cells to form tumors in vivo in an androgen—independent manner. Subcutaneous implantation of these LNCaP cells into 4 quadrants of SCID mice results in rapid tumor growth in intact and castrated mice over an eight week period. […] Mice placed on a high cholesterol diet 4 weeks prior to tumor implantation are started on ezetimibe and SCH 48461 @ 30 mg/kg of body weight 2 weeks after tumor implantation.
# Subcutaneous implantations of LNCaP cells into 4 quadrants of SCID mice (2×10^6 cells in 150 ul Matrigel per injection site) results in rapid tumor growth in intact and castrated hosts on a high cholesterol diet over an 8 week period. Two weeks after tumor cell implantation, the animals are given ezetimibe in their diet at 10 mg/kg body weight.
# [5] = system: BIO 87.20 male Syrian hamster; test: Ezetimibe treatment of BIO 87.20 male Syrian hamsters that develop spontaneous cystic prostatic hypertrophy and other tumors; type: in vivo
# Excerpt: The BIO 87.20 male Syrian hamster is a well-known inbred line that develops, spontaneously, an age-dependent and genetic related cystic prostatic hypertrophy and is recognized in the art as an excellent model for human prostate disease. See, e.g., Homburger et al., 1970, Proc. Soc. Exptl. Biol. Med., 134:284-286; Homburger, 1972, Health Lab Sci., 9:103-111; Wang et al., 1976, Invest. Urol., 14:66-71. The BIO 87.20 strain of hamster develops multiple tumors after 12 months of age.
# The stromal hyperplasia and changes in the epithelial cells are also observed upon microscopic examination. […] The BIO 87.20 and BIO 1.5 strains of male Syrian hamster are employed in the ezetimibe studies presented herein. […] Schaffner et al., Lipids 16:835-840 (1981). The defect in cholesterol synthesis and the development of cystic prostatic hypertrophy in the BIO 87.20 male hamster is related.
# 16 BIO 1.5 and 48 BIO 87.20 male Syrian hamsters are obtained from Bio Breeders, Inc. Boston, Mass. Among these animals, 8 BIO 1.5 and 24 BIO 87.20 hamsters are 6 months of age, while the remainder, consisting of […] and 24 BIO 87.20 hamsters, are 12 months of age. The animals are housed in individual cages. All animals are given water ad libitum and are housed under automatic regime of 12 hours artificial light and 12 hours darkness. Food consumption is be monitored to ensure equivalent intake in all animals. The drug, ezetimibe, is powdered and mixed into ground PURINA® hamster chow. Concentrations of ezetimibe, in the food, is adjusted according to quantity of food intake per hamster per day and expressed as average μg of ezetimibe per kg body weight per day.
# The animals are divided into 8 experimental groups containing 8 animals each. The groups may be characterized as follows:
# Control BIO 1.5 and control and treated BIO 87.20 male Syrian hamsters, both 6 and 12 months of age, are used as follows. In the treated group of BIO 87.20 male Syrian hamsters, ezetimibe is administered as a powder in the diet. Treatment with doses of ezetimibe of 100 and 1000 micrograms per kilogram body weight of the BIO 87.20 animals is continued for 6 months. […] After 6 months of treatment the animals are sacrificed and the prostate glands excised, weighed and preserved for histopathological examination.
molecule,measurement,setting,value
CC[C@H](CC[C@@H](C)[C@H]1CC[C@H]2[C@@H]3CC=C4C[C@@H](O)CC[C@]4(C)[C@H]3CC[C@]12C)C(C)C [beta-sitosterol],effectiveness in the treatment of benign prostatic hyperplasia,[1],effective
candicidin,tumor initiation and progression vs untreated controls,[2],inhibit tumor initiation and progression
COc1ccc([C@@H]2[C@@H](CCCc3ccccc3)C(=O)N2c2ccc(OC)cc2)cc1 [SCH 48461],serum cholesterol levels,[3],do not generally affect serum cholesterol levels
same,elevated serum cholesterol levels,[3],do lower elevated serum cholesterol levels
same,tumor growth and progression vs untreated controls,[4],significant inhibition of tumor growth and progression
same,tumor volumes: progression and growth of the implanted tumors vs untreated controls,[4],significantly inhibits the progression and growth of the implanted tumors
"O=C1[C@H](CC[C@H](O)c2ccc(F)cc2)[C@@H](c2ccc(O)cc2)N1c1ccc(F)cc1 [ezetimibe, 1-(4-fluorophenyl)-(3R)-[3-(4-fluorophenyl)-(3S)-hydroxypropyl]-(45)-(4-hydroxyphenyl)-2-azetidinone]",effect of higher dose on inhibition and reversal of the prostate enlargement,[5]; 1000 μg/kg body weight,greater effect on the inhibition and reversal of the prostate enlargement
same,"inhibitory effect on size increase of the prostate gland, higher vs lower dose","[5]; 1000 μg/kg body weight, beginning at 6 months of age, 6 months",greater inhibitory effect on size increase of the prostate gland
same,"level of effect on ventral prostate weights, higher vs lower dose","[5]; 1000 vs 100 μg/kg body weight, beginning at 12 months of age, 6 months",significantly greater at the higher dosage
same,tumors at the end of the experiment vs BIO 87.20 control animals of the same age,[5]; as referred to Example II,no tumors
same,cystic prostatic hypertrophy on histopathological examination vs untreated controls,"[5]; beginning at 6 months of age, after 6 months of treatment",marked reduction in the cystic prostatic hypertrophy
same,established prostatic enlargement (reversal),"[5]; beginning at 12 months of age, enlargement already present",reverses the prostatic enlargement
same,miscellaneous tumors other than that of the prostate gland,"[5]; oral 1000 μg/kg body weight, beginning at 12 months of age, 6 months",very few tumors are observed
same,development of cystic prostatic hypertrophy,[5]; oral route,inhibits the development of cystic prostatic hypertrophy
same,other cholesterol-associated tumor formation,"[5]; summary statement, dose not given",inhibits other cholesterol-associated tumor formation
same,histology of the prostates on histopathological examination,[5]; treated BIO 87.20 compared with BIO 1.5 prostate sections,more normal histology
same,prostatic enlargement / prostate gland volume vs untreated control BIO 87.20,"[5]; treatment beginning at 6 months of age, 6 months, 100 and 1000 μg/kg body weight in diet",inhibits prostatic enlargement; also recorded: marked inhibitory effect on the prostate gland volume
same,prostatic mass or volume / excised ventral prostate weights vs untreated BIO 87.20 controls,"[5]; treatment beginning at 12 months of age, 6 months, 100 and 1000 μg/kg body weight",reduces the prostatic mass or volume; also recorded: markedly reduced
same,serum cholesterol levels,[3],do not generally affect serum cholesterol levels
same,elevated serum cholesterol levels,[3],do lower elevated serum cholesterol levels
same,tumor growth and progression vs untreated controls,[4],marked inhibition of tumor growth and progression
same,tumor volumes: progression and growth of the implanted tumors vs untreated controls,[4],significantly inhibits the progression and growth of the implanted tumors
"O=C1N(c2ccc(F)cc2)[C@H](c2ccc(O)cc2)C12CCC(O)(c1ccc(Cl)cc1)CC2 (single isomer, unassigned; (+)) [SCH 58053, (+)-7-(4-chlorophenyl)-2-(4-flourophenyl)-7-hydroxy-3R-(4-hydroxyphenyl)-2-azaspiro[3,5]nonan-1-one]",serum cholesterol levels,[3],do not generally affect serum cholesterol levels
same,elevated serum cholesterol levels,[3],do lower elevated serum cholesterol levels
